Results reported in PubChem BioAssay (NCI).
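At the GI50, growth is halved. TGI denotes the concentration required for complete inhibition of growth.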

Legend:
Experiment in all cases: NCI tumour cell line growth inhibition, 384-well format
786-0 renal = tested on: 786-0 renal
MDA-MB-468 breast = tested on: MDA-MB-468 breast
SN12C renal = tested on: SN12C renal
BT-549 breast = tested on: BT-549 breast
DU-145 prostate = tested on: DU-145 prostate
NCI-H522 lung = tested on: NCI-H522 lung
UACC-257 melanoma = tested on: UACC-257 melanoma
M14 melanoma = tested on: M14 melanoma
MDA-MB-231 breast = tested on: MDA-MB-231 breast
HT29 colon = tested on: HT29 colon
UACC-62 melanoma = tested on: UACC-62 melanoma
SK-OV-3 ovarian = tested on: SK-OV-3 ovarian
NCI/ADR-RES ovarian = tested on: NCI/ADR-RES ovarian
HCC-2998 colon = tested on: HCC-2998 colon
SF-539 CNS = tested on: SF-539 CNS
K-562 leukemia = tested on: K-562 leukemia
NCI-H226 lung = tested on: NCI-H226 lung
NCI-H23 lung = tested on: NCI-H23 lung
SW-620 colon = tested on: SW-620 colon
PC-3 prostate = tested on: PC-3 prostate
CAKI-1 renal = tested on: CAKI-1 renal
COLO 205 colon = tested on: COLO 205 colon
HOP-92 NSCLC = tested on: HOP-92 NSCLC
SNB-75 CNS = tested on: SNB-75 CNS
EKVX NSCLC = tested on: EKVX NSCLC
LOX IMVI melanoma = tested on: LOX IMVI melanoma
HCT-15 colon = tested on: HCT-15 colon
HCT-116 colon = tested on: HCT-116 colon
TK-10 renal = tested on: TK-10 renal
MALME-3M melanoma = tested on: MALME-3M melanoma
SR leukemia = tested on: SR leukemia
UO-31 renal = tested on: UO-31 renal
SF-268 CNS = tested on: SF-268 CNS
CCRF-CEM leukemia = tested on: CCRF-CEM leukemia
SK-MEL-28 melanoma = tested on: SK-MEL-28 melanoma
MCF7 breast = tested on: MCF7 breast
IGROV1 ovarian = tested on: IGROV1 ovarian
SF-295 CNS = tested on: SF-295 CNS
OVCAR-5 ovarian = tested on: OVCAR-5 ovarian
T-47D breast = tested on: T-47D breast
SK-MEL-2 melanoma = tested on: SK-MEL-2 melanoma
A549 NSCLC = tested on: A549 NSCLC
RXF 393 renal = tested on: RXF 393 renal
MOLT-4 leukemia = tested on: MOLT-4 leukemia
SNB-19 CNS = tested on: SNB-19 CNS
HOP-62 NSCLC = tested on: HOP-62 NSCLC
HS 578T breast = tested on: HS 578T breast

In the case of `Cc1c(Br)c(Br)c2c3c1nc(N1CCNCC1)n3CCC2`, the GI50 ([…]-0 renal) is reported as 1550 nM, the TGI (786-0 renal) is reported as 2900 nM and the GI50 (MDA-MB-468 breast) is reported as 1150 nM. The TGI (MDA-MB-468 breast) was 2370 nM, the GI50 (SN12C renal) was 1640 nM and the TGI (SN12C renal) was 3020 nM. The GI50 (BT-549 breast) was 1350 nM, the TGI (BT-549 breast) was 2640 nM and the GI50 (DU-145 prostate) was 1670 nM. The TGI (DU-145 prostate) was 3120 nM, the GI50 (NCI-H522 lung) was 347 nM and the TGI (NCI-H522 lung) was 1800 nM. For the same molecule, the GI50 (UACC-257 melanoma) was 1620 nM, the TGI (UACC-257 melanoma) was 2990 nM and the GI50 (M14 melanoma) was 1530 nM. It also gave a TGI (M14 melanoma) of 2880 nM, a GI50 (MDA-MB-231 breast) of 1600 nM and a TGI (MDA-MB-231 breast) of 3240 nM. The GI50 (HT29 colon) was 1620 nM, the TGI (HT29 colon) was 3060 nM and the GI50 (UACC-62 melanoma) was 1480 nM. For the same molecule, the TGI (UACC-62 melanoma) was 2820 nM, the GI50 (SK-OV-3 ovarian) was 1360 nM and the TGI (SK-OV-3 ovarian) was 2740 nM. For the same molecule, the GI50 (NCI/ADR-RES ovarian) was 1680 nM, the TGI (NCI/ADR-RES ovarian) was 3270 nM and the GI50 (HCC-2998 colon) was 976 nM. The TGI (HCC-2998 colon) was 2230 nM, the GI50 (SF-539 CNS) was 1640 nM and the TGI (SF-539 CNS) was 3010 nM. For the same molecule, the GI50 (K-562 leukemia) was 1520 nM, the TGI (K-562 leukemia) was 2890 nM and the GI50 (NCI-H226 lung) was 1200 nM. It also gave a TGI (NCI-H226 lung) of 2620 nM, a GI50 (NCI-H23 lung) of 1660 nM and a TGI (NCI-H23 lung) of 3090 nM. It also gave a GI50 (SW-620 colon) of 1250 nM, a TGI (SW-620 colon) of 2510 nM and a GI50 (PC-3 prostate) of 1320 nM. The TGI (PC-3 prostate) was 2670 nM, the GI50 (CAKI-1 renal) was 1590 nM and the TGI (CAKI-1 renal) was 2990 nM. For the same molecule, the GI50 (COLO 205 colon) was 1800 nM, the TGI (COLO 205 colon) was 3210 nM and the GI50 (HOP-92 NSCLC) was 1750 nM. It also gave a TGI (HOP-92 NSCLC) of 3300 nM, a GI50 (SNB-75 CNS) of 1970 nM and a TGI (SNB-75 CNS) of 3400 nM. The GI50 (EKVX NSCLC) was 1570 nM, the TGI (EKVX NSCLC) was 2950 nM and the GI50 (LOX IMVI melanoma) was 1490 nM. It also gave a TGI (LOX IMVI melanoma) of 2840 nM, a GI50 (HCT-15 colon) of 1600 nM and a TGI (HCT-15 colon) of 2980 nM. For the same molecule, the GI50 (HCT-116 colon) was 1370 nM, the TGI (HCT-116 colon) was 2700 nM and the GI50 (TK-10 renal) was 1510 nM. For the same molecule, the TGI (TK-10 renal) was 2880 nM, the GI50 (MALME-3M melanoma) was 1420 nM and the TGI (MALME-3M melanoma) was 2730 nM. For the same molecule, the GI50 (SR leukemia) was 1030 nM, the TGI (SR leukemia) was 2240 nM and the GI50 (UO-31 renal) was 1450 nM. The TGI (UO-31 renal) was 2780 nM, the GI50 (SF-268 CNS) was 1330 nM and the TGI (SF-268 CNS) was 2650 nM. The GI50 (CCRF-CEM leukemia) was 885 nM, the TGI (CCRF-CEM leukemia) was 2170 nM and the GI50 (SK-MEL-28 melanoma) was 1590 nM. The TGI (SK-MEL-28 melanoma) was 2950 nM, the GI50 (MCF7 breast) was 1170 nM and the TGI (MCF7 breast) was 2420 nM. For the same molecule, the GI50 (IGROV1 ovarian) was 1310 nM, the TGI (IGROV1 ovarian) was 2610 nM and the GI50 (SF-295 CNS) was 1690 nM. The TGI (SF-295 CNS) was 3100 nM, the GI50 (OVCAR-5 ovarian) was 1740 nM and the TGI (OVCAR-5 ovarian) was 3240 nM. For the same molecule, the GI50 (T-47D breast) was 1520 nM, the TGI (T-47D breast) was 2860 nM and the GI50 (SK-MEL-2 melanoma) was 1380 nM. For the same molecule, the TGI (SK-MEL-2 melanoma) was 2680 nM, the GI50 (A549 NSCLC) was 1750 nM and the TGI (A549 NSCLC) was 3350 nM. The GI50 (RXF 393 renal) was 1390 nM, the TGI (RXF 393 renal) was 2680 nM and the GI50 (MOLT-4 leukemia) was 1230 nM. It also gave a TGI (MOLT-4 leukemia) of 2480 nM, a GI50 (SNB-19 CNS) of 1750 nM and a TGI (SNB-19 CNS) of 3240 nM. For the same molecule, the GI50 (HOP-62 NSCLC) was 1720 nM, the TGI (HOP-62 NSCLC) was 3570 nM and the GI50 (HS 578T breast) was 1870 nM. For the same molecule, the TGI (HS 578T breast) was 3280 nM.
